# System: RA patients
# Test: [HDL] determination, Study 1 (RA patients, add-on to MTX)
# Format: in vivo, human
# Method: Double-blind, placebo-controlled add on study in subjects with moderately to severely active RA who have an inadequate response to methotrexate (MTX) (oral or parenteral).
# 595 subjects randomized to one of 6 dose regimens of Compound 1 (dosed as a [Compound 1:HCl:3H2O]) (3 dose levels administered either once or twice daily) or placebo on top of each subject's stable dose of MTX.
# Compound 1 (dosed as a [Compound 1:HCl:3H2O]) is dosed for twelve weeks once daily (q.d.) (50 mg, 100 mg or 200 mg) or twice daily (b.i.d.) (25 mg, 50 mg or 100 mg); or placebo.
# At Week 12, the subjects on placebo who have not achieved 20% improvement in swollen joint count (SJC66) and tender joint count (TJC68) are re-randomized automatically to receive Compound 1 (dosed as a [Compound 1:HCl:3H2O]) either at 100 mg q.d. or 50 mg b.i.d. doses in a blinded fashion; subjects on 50 mg q.d. who have not achieved 20% improvement in SJC66 and TJC68 will be assigned to 100 mg q.d. and subjects on 25 mg b.i.d. that have not achieved a 20% improvement in SJC66 and TJC68 will be assigned to 50 mg b.i.d. Subjects who switch treatment at week 12 are handled as if they discontinued at week 12 for the purpose of statistical analysis, whereas subjects in the other groups will maintain their randomized treatment until Week 24.
# This assay relies on a homogeneous enzymatic colorimetric test. In the presence of magnesium ions, dextran sulfate selectively forms water-soluble complexes with LDL, VLDL and chylomicrons which are resistant to PEG-modified enzymes.
# The cholesterol concentration of [HDL]-cholesterol is determined enzymatically by cholesterol esterase and cholesterol oxidase coupled with PEG to the amino groups (approx. 40%).
# In the presence of peroxidase, the hydrogen peroxide generated reacts with 4-amino-antipyrine and Sodium N-(2-hydroxy-3-sulfopropyl)-3,5-dimethoxyaniline (HSDA) to form a purple-blue dye. The color intensity of this dye is directly proportional to the cholesterol concentration and is measured photometrically.
# Human serum and plasma samples [HDL] determination was done on a Roche/Hitachi Cobas c 701/702 system which automatically calculate the analyte concentration of each sample. Samples containing precipitates are centrifuged before performing the assay.
# [1] = continued 200 mg q.d. (N = 86), week 4
# [2] = continued 200 mg q.d. (N = 86), week 8
# [3] = continued 200 mg q.d. (N = 86), week 12
# [4] = continued 200 mg q.d. (N = 86), week 16
# [5] = continued 200 mg q.d. (N = 86), week 20
# [6] = continued 200 mg q.d. (N = 86), week 24
# [7] = from 25 mg b.i.d. to 50 mg b.i.d at 12 weeks (N = 17), week 1
# [8] = from 25 mg b.i.d. to 50 mg b.i.d at 12 weeks (N = 17), week 2
# [9] = from 25 mg b.i.d. to 50 mg b.i.d at 12 weeks (N = 17), week 4
# [10] = from 25 mg b.i.d. to 50 mg b.i.d at 12 weeks (N = 17), week 8
# [11] = from 25 mg b.i.d. to 50 mg b.i.d at 12 weeks (N = 17), week 12
# [12] = from 25 mg b.i.d. to 50 mg b.i.d at 12 weeks (N = 17), week 24
# [13] = from 50 mg q.d. to 100 mg q.d. at 12 weeks (N = 19), week 1
# [14] = from 50 mg q.d. to 100 mg q.d. at 12 weeks (N = 19), week 2
# [15] = from 50 mg q.d. to 100 mg q.d. at 12 weeks (N = 19), week 4
# [16] = from 50 mg q.d. to 100 mg q.d. at 12 weeks (N = 19), week 8
# [17] = from 50 mg q.d. to 100 mg q.d. at 12 weeks (N = 19), week 12
# [18] = from 50 mg q.d. to 100 mg q.d. at 12 weeks (N = 19), week 16
# [19] = from 50 mg q.d. to 100 mg q.d. at 12 weeks (N = 19), week 20
# [20] = from 50 mg q.d. to 100 mg q.d. at 12 weeks (N = 19), week 24
# [21] = placebo switched to 50 mg b.i.d at week 12 (N = 15), week 16
# [22] = placebo switched to 50 mg b.i.d at week 12 (N = 15), week 20
# [23] = placebo switched to 50 mg b.i.d at week 12 (N = 15), week 24
smiles,measurement,setting,value
"O=C(Nc1nc2cccc(-c3ccc(CN4CCS(=O)(=O)CC4)cc3)n2n1)C1CC1 [Compound 1, cyclopropanecarboxylic acid {5-[4-(1,1-dioxo-thiomorpholin-4-ylmethyl)-phenyl]-[1,2,4]triazolo[1,5-a]pyridin-2yl}-amide]",[HDL] Mean percentage CFB - 24 weeks results,[1],19.85%
same,[HDL] Median CFB - 24 weeks results,[1],0.25 mmol/L
same,[HDL] Mean CFB - 24 weeks results,[2],0.29 mmol/L
same,[HDL] Mean percentage CFB - 24 weeks results,[2],21.85%
same,[HDL] Median CFB - 24 weeks results,[2],0.30 mmol/L
same,[HDL] Mean CFB - 24 weeks results,[3],0.27 mmol/L
same,[HDL] Mean percentage CFB - 24 weeks results,[3],21.24%
same,[HDL] Median CFB - 24 weeks results,[3],0.26 mmol/L
same,[HDL] Mean CFB - 24 weeks results,[4],0.27 mmol/L
same,[HDL] Mean percentage CFB - 24 weeks results,[4],21.14%
same,[HDL] Median CFB - 24 weeks results,[4],0.23 mmol/L
same,[HDL] Mean CFB - 24 weeks results,[5],0.30 mmol/L
same,[HDL] Mean percentage CFB - 24 weeks results,[5],24.27%
same,[HDL] Median CFB - 24 weeks results,[5],0.30 mmol/L
same,[HDL] Mean CFB - 24 weeks results,[6],0.26 mmol/L
same,[HDL] Mean percentage CFB - 24 weeks results,[6],20.78%
same,[HDL] Median CFB - 24 weeks results,[6],0.25 mmol/L
same,[HDL] Mean CFB - 24 weeks results,[7],-0.05 mmol/L
same,[HDL] Mean percentage CFB - 24 weeks results,[7],−1.35%
same,[HDL] Median CFB - 24 weeks results,[7],-0.01 mmol/L
same,[HDL] Mean CFB - 24 weeks results,[8],0.03 mmol/L
same,[HDL] Mean percentage CFB - 24 weeks results,[8],4.08%
same,[HDL] Median CFB - 24 weeks results,[8],0.05 mmol/L
same,[HDL] Mean CFB - 24 weeks results,[9],-0.01 mmol/L
same,[HDL] Mean percentage CFB - 24 weeks results,[9],1.09%
same,[HDL] Median CFB - 24 weeks results,[9],0.00 mmol/L
same,[HDL] Mean CFB - 24 weeks results,[10],-0.02 mmol/L
same,[HDL] Mean percentage CFB - 24 weeks results,[10],0.59%
same,[HDL] Median CFB - 24 weeks results,[10],0.05 mmol/L
same,[HDL] Mean CFB - 24 weeks results,[11],0.04 mmol/L
same,[HDL] Mean percentage CFB - 24 weeks results,[11],5.55%
same,[HDL] Median CFB - 24 weeks results,[11],0.00 mmol/L
same,[HDL] Mean percentage CFB - 24 weeks results,"from 25 mg b.i.d. to 50 mg b.i.d at 12 weeks (N = 17), week 16",7.37%
same,[HDL] Mean percentage CFB - 24 weeks results,"from 25 mg b.i.d. to 50 mg b.i.d at 12 weeks (N = 17), week 20",1.50%
same,[HDL] Mean CFB - 24 weeks results,[12],0.10 mmol/L
same,[HDL] Mean percentage CFB - 24 weeks results,[12],8.10%
same,[HDL] Median CFB - 24 weeks results,[12],0.17 mmol/L
same,[HDL] Mean CFB - 24 weeks results,[13],0.02 mmol/L
same,[HDL] Mean percentage CFB - 24 weeks results,[13],2.29%
same,[HDL] Median CFB - 24 weeks results,[13],0.00 mmol/L
same,[HDL] Mean CFB - 24 weeks results,[14],0.10 mmol/L
same,[HDL] Mean percentage CFB - 24 weeks results,[14],6.63%
same,[HDL] Median CFB - 24 weeks results,[14],0.07 mmol/L
same,[HDL] Mean CFB - 24 weeks results,[15],0.07 mmol/L
same,[HDL] Mean percentage CFB - 24 weeks results,[15],5.26%
same,[HDL] Median CFB - 24 weeks results,[15],0.06 mmol/L
same,[HDL] Mean CFB - 24 weeks results,[16],0.05 mmol/L
same,[HDL] Mean percentage CFB - 24 weeks results,[16],5.77%
same,[HDL] Median CFB - 24 weeks results,[16],0.09 mmol/L
same,[HDL] Mean CFB - 24 weeks results,[17],-0.02 mmol/L
same,[HDL] Mean percentage CFB - 24 weeks results,[17],2.41%
same,[HDL] Median CFB - 24 weeks results,[17],-0.05 mmol/L
same,[HDL] Mean CFB - 24 weeks results,[18],0.18 mmol/L
same,[HDL] Mean percentage CFB - 24 weeks results,[18],11.43%
same,[HDL] Median CFB - 24 weeks results,[18],0.15 mmol/L
same,[HDL] Mean CFB - 24 weeks results,[19],0.13 mmol/L
same,[HDL] Mean percentage CFB - 24 weeks results,[19],8.89%
same,[HDL] Median CFB - 24 weeks results,[19],0.20 mmol/L
same,[HDL] Mean CFB - 24 weeks results,[20],0.11 mmol/L
same,[HDL] Mean percentage CFB - 24 weeks results,[20],8.29%
same,[HDL] Median CFB - 24 weeks results,[20],0.11 mmol/L
same,[HDL] Mean CFB - 24 weeks results,[21],0.08 mmol/L
same,[HDL] Mean percentage CFB - 24 weeks results,[21],10.96%
same,[HDL] Median CFB - 24 weeks results,[21],0.18 mmol/L
same,[HDL] Mean CFB - 24 weeks results,[22],0.10 mmol/L
same,[HDL] Mean percentage CFB - 24 weeks results,[22],12.63%
same,[HDL] Median CFB - 24 weeks results,[22],0.21 mmol/L
same,[HDL] Mean CFB - 24 weeks results,[23],0.10 mmol/L
same,[HDL] Mean percentage CFB - 24 weeks results,[23],10.63%
same,[HDL] Median CFB - 24 weeks results,[23],0.10 mmol/L
same,[HDL] Mean percentage CFB - 24 weeks results,"placebo switched to 100 mg q.d. at week 12 (N = 15), week 16",−0.14%
same,[HDL] Mean percentage CFB - 24 weeks results,"placebo switched to 100 mg q.d. at week 12 (N = 15), week 20",0.95%
same,[HDL] Mean percentage CFB - 24 weeks results,"placebo switched to 100 mg q.d. at week 12 (N = 15), week 24",0.14%

# From patent publication US10376520B2, “Methods for the treatment of cardiovascular disorders” (Galapagos NV, priority 2015, dated 2019)
